Assay results published in ChEMBL document CHEMBL4428091, “Design and optimization of (3-aryl-1H-indazol-6-yl)spiro[cyclopropane-1,3'-indolin]-2'-ones as potent PLK4 inhibitors with oral antitumor efficacy” (Bioorg Med Chem Lett, 2016).

Key:
[1] = Dissociation constant, pKa of the compound; type: physicochemical
[2] = system: MCF7; experiment: Growth inhibition of human MCF7; type: functional
[3] = Lipophilicity, log D of the compound at pH 7.4; type: physicochemical; settings: buffer
[4] = molecular target: T1, Serine/threonine-protein kinase PLK4 (Homo sapiens, UniProt O00444); experiment: Inhibition of PLK4 (unknown origin)
T1 sequence (O00444 whole entry): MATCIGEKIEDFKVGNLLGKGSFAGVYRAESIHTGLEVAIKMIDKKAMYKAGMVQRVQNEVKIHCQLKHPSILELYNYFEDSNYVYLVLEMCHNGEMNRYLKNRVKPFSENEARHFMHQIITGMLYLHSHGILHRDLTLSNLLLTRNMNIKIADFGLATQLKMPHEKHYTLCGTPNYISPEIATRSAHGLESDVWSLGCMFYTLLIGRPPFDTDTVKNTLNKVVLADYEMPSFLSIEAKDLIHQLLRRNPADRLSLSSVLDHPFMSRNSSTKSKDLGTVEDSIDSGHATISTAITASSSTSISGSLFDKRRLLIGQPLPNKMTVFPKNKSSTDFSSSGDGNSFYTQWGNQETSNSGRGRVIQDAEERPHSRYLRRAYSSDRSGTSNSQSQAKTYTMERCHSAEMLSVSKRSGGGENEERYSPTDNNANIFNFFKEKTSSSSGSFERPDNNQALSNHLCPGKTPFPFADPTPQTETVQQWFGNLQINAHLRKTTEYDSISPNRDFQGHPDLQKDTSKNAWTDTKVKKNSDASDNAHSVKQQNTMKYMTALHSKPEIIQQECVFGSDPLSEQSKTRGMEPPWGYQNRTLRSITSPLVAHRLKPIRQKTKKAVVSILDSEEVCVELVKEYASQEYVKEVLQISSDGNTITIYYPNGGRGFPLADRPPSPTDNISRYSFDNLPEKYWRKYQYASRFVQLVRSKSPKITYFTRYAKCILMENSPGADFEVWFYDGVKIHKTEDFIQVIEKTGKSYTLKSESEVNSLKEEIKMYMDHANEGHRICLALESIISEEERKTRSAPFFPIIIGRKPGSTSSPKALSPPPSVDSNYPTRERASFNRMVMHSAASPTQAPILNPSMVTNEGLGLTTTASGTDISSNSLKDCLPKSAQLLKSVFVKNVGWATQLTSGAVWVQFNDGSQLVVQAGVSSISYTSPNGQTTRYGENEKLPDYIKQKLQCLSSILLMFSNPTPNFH

[5] = system: MDA-MB-468; experiment: Growth inhibition of human MDA-MB-468 cells; type: functional
[6] = system: HCC1954; experiment: Growth inhibition of human HCC1954; type: functional
[7] = molecular target: T2, Receptor-type tyrosine-protein kinase FLT3 (Homo sapiens, UniProt P36888); experiment: Inhibition of FLT3 (unknown origin)
T2 sequence (P36888 whole entry): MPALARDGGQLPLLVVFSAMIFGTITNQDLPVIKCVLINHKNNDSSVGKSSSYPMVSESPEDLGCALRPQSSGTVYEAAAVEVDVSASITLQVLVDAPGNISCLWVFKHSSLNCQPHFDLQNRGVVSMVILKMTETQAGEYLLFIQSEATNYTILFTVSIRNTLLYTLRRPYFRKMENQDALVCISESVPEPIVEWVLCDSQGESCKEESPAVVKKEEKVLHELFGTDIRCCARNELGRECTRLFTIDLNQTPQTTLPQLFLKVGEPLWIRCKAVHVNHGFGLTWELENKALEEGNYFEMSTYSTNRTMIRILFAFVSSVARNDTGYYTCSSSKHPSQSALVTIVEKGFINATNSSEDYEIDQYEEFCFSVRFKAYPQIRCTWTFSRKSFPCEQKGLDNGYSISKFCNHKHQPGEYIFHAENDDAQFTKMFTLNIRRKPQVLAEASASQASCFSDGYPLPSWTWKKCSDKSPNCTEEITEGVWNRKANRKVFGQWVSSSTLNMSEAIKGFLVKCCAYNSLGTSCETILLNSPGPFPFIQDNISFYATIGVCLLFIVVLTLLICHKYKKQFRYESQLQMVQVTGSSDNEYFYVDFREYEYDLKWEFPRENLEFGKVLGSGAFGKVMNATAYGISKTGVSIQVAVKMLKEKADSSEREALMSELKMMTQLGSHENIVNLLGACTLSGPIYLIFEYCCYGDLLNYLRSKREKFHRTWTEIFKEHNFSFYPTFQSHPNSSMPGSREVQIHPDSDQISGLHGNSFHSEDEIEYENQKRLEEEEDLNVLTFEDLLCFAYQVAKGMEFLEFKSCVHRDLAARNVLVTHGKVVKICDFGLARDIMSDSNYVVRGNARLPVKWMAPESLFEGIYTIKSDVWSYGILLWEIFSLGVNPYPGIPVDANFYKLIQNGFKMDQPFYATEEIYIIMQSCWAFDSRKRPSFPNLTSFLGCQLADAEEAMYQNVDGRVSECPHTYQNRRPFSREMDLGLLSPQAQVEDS

[8] = molecular target: Aurora kinase B (Homo sapiens, UniProt Q96GD4); experiment: Inhibition of AURKB (unknown origin)
[9] = Half life in mouse microsomes; type: ADME, Microsome
[10] = molecular target: T3, Aurora kinase A (Homo sapiens, UniProt O14965); experiment: Inhibition of AURKA (unknown origin)
T3 sequence (O14965 whole entry): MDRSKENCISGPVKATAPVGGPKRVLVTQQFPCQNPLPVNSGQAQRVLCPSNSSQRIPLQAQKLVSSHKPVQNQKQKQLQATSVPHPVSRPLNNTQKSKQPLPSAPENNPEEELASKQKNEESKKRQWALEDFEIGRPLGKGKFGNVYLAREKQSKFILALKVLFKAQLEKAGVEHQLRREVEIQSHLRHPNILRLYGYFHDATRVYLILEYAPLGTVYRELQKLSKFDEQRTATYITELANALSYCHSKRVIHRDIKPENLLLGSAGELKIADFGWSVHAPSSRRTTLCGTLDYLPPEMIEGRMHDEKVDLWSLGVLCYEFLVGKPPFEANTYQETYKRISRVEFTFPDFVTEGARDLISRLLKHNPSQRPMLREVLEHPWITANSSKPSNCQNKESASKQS

[11] = Cmax in mouse at 25 mg/kg, po; type: ADME, organism-based; parameters: dose 25 mg/kg, route oral; settings: in vivo, read-out: Cmax
[12] = Half life in human microsomes; type: ADME, Microsome
[13] = molecular target: CYP2C9 (Homo sapiens, UniProt P11712); experiment: Inhibition of CYP2C9 (unknown origin) at 1 uM; type: ADME
[14] = molecular target: CYP3A4 (Homo sapiens, UniProt P08684); experiment: Inhibition of CYP3A4 (unknown origin) at 1 uM; type: ADME
[15] = molecular target: Vascular endothelial growth factor receptor 2 (Homo sapiens, UniProt P35968); experiment: Inhibition of KDR (unknown origin)
[16] = molecular target: CYP2C19 (Homo sapiens, UniProt P33261); experiment: Inhibition of CYP2C19 (unknown origin) at 1 uM; type: ADME
[17] = AUC in mouse at 25 mg/kg, po; type: ADME, organism-based; settings: in vivo
[18] = Clearance in rat at 1 mg/kg, iv; type: ADME, organism-based; settings: in vivo
[19] = Toxicity in mouse xenografted with human MDA-MB-468 cells assessed as body weight loss at 37.5 mg/kg, po qd for 21 days measured during compound dosing relative to vehicle control; type: organism-based; settings: in vivo, 504 h
[20] = system: MDA-MB-468; experiment: Antitumor activity against human MDA-MB-468 cells xenografted in mouse assessed as tumor growth inhibition at 37.5 mg/kg, po qd for 21 days measured on day 21 post last dose relative to vehicle control; type: functional; settings: MDA-MB-468, po, 504 h, read-out: TGI
[21] = Oral bioavailability in rat at 5 mg/kg; type: ADME, organism-based; settings: in vivo
[22] = AUC in rat at 5 mg/kg, po; type: ADME, organism-based; settings: in vivo, read-out: AUC
[23] = Half life in rat at 1 mg/kg, iv; type: ADME, organism-based; settings: in vivo
[24] = AUC in rat at 1 mg/kg, iv; type: ADME, organism-based; settings: in vivo

Vascular endothelial growth factor receptor 2, sequence (P35968 whole entry): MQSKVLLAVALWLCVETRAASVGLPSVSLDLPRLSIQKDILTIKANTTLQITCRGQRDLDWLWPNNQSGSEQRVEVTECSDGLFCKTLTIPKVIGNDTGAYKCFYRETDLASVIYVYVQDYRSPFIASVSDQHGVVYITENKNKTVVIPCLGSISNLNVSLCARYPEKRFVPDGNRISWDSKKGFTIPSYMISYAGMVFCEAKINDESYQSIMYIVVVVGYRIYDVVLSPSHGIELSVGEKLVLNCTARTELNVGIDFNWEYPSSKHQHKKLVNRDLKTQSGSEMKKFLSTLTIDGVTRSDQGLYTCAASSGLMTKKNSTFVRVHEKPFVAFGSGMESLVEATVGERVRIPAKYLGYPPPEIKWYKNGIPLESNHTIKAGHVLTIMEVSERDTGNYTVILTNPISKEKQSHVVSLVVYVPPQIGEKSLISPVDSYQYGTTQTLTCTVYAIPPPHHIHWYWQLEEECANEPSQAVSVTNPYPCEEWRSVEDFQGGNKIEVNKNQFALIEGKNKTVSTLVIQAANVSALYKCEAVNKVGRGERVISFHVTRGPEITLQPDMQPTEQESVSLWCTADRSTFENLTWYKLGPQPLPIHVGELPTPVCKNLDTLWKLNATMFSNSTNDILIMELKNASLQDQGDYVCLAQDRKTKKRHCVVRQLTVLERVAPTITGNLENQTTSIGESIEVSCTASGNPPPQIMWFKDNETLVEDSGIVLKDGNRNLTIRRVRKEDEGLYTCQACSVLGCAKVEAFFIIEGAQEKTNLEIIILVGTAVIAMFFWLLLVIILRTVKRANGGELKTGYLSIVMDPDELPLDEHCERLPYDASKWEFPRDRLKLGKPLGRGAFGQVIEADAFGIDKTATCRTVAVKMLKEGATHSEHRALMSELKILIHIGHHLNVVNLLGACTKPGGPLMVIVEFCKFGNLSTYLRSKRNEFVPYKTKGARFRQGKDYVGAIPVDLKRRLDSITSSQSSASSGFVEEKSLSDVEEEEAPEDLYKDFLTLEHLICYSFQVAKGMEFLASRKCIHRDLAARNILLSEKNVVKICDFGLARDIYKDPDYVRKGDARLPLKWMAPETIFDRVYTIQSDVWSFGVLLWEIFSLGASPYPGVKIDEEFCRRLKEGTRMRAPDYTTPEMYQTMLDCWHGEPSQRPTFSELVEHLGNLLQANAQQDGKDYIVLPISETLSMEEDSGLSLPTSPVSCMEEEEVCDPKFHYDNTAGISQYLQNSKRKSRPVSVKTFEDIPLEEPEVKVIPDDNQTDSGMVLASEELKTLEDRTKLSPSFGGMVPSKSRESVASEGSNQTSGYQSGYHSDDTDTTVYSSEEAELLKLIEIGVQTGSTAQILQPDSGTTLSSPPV
CYP3A4, sequence (P08684 whole entry): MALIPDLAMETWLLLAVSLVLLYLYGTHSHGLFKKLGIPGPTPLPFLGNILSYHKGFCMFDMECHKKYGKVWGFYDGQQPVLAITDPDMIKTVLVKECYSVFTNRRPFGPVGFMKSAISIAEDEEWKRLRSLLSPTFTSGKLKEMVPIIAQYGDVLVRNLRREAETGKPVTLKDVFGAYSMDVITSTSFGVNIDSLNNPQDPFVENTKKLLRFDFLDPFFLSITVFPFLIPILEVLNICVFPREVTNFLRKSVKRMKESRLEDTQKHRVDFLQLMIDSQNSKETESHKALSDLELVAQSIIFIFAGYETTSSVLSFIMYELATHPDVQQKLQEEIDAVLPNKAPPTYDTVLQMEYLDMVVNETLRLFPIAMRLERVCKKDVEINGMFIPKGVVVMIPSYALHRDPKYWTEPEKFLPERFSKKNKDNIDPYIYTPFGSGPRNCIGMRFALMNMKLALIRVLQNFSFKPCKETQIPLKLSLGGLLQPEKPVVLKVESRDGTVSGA
CYP2C19, sequence (P33261 whole entry): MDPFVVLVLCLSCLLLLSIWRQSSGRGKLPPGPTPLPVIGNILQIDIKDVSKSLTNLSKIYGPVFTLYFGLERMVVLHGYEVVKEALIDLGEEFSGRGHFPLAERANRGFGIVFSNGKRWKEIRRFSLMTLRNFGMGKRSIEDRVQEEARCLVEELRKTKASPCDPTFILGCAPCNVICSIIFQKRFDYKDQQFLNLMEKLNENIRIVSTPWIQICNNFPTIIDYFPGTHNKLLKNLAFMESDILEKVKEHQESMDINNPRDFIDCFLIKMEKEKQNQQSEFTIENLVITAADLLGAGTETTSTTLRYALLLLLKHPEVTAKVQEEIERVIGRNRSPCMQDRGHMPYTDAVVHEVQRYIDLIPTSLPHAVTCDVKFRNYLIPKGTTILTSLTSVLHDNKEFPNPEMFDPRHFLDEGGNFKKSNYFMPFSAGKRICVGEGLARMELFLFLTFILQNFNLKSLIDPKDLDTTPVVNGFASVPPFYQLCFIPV
Aurora kinase B, sequence (Q96GD4 whole entry): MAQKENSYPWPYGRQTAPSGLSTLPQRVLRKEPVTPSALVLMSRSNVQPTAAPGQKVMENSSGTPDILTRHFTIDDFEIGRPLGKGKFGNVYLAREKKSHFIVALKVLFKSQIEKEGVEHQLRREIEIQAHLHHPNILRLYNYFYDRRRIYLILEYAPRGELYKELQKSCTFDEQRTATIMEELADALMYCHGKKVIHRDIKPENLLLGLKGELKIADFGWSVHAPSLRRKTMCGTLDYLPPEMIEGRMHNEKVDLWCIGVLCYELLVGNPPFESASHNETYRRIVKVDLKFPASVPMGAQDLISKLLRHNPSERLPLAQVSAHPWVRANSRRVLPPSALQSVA
CYP2C9, sequence (P11712 whole entry): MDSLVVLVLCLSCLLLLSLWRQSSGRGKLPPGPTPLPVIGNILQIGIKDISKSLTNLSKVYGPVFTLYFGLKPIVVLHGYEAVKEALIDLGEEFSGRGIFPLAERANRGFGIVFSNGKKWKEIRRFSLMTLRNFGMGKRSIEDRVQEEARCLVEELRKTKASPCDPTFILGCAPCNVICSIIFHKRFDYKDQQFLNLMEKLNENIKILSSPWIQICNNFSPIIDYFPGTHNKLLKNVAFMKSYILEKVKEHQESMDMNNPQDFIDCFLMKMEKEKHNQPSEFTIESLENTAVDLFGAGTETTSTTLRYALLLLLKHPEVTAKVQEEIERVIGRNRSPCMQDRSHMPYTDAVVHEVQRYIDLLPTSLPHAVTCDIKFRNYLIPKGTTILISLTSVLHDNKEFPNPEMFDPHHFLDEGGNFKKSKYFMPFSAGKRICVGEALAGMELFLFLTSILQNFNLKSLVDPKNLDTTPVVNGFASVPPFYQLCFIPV

Row | SMILES | GI50 [2] [µM] | logD [3] | IC50 [4] [µM] | GI50 [5] [µM] | GI50 [6] [µM] | IC50 [7] [µM] | IC50 [8] [µM] | half-life [9] [min] | IC50 [10] [µM] | Cmax [11] [ng/mL] | half-life [12] [min] | inhibition at 1 µM [13] [%] | inhibition at 1 µM [14] [%] | inhibition at 1 µM [16] [%] | AUC [17] [ng·h/mL] | clearance [18] [mL/min/kg] | bioavailability [21] [%] | AUC [22] [ng·h/mL] | half-life [23] [min] | AUC [24] [ng·h/mL] | also measured
1 | COc1ccc2c(c1)[C@]1(C[C@H]1c1ccc3c(-c4ccc(C5(F)CCN(C)CC5)cc4)n[nH]c3c1)C(=O)N2 | 0.15 | 4 | 0.0015 | 0.22 | 1.42 | 0.2 | – | – | – | – | – | – | – | – | – | – | – | – | – | – | pKa [1]: 7.7
2 | COc1ccc2c(c1)[C@]1(C[C@H]1c1ccc3c(-c4ccc(N5C[C@@H](C)N[C@@H](C)C5)cc4)n[nH]c3c1)C(=O)N2 | 0.03 | 3.4 | 0.0012 | 0.0058 | 8.8 | 0.23 | 0.013 | 43 | > 1 | 110 | > 60 | 44 | -3 | 54 | 170 | – | – | – | – | – | IC50 [15]: > 5 µM
3 | CCN1CCN(c2ccc(-c3n[nH]c4cc([C@@H]5C[C@@]56C(=O)Nc5ccc(OC)cc56)ccc34)cc2)CC1 | 0.0063 | 4.8 | 0.0016 | 0.031 | 0.24 | 0.062 | 0.0085 | 15 | > 1 | 1100 | > 60 | 37 | 6 | 60 | 3000 | 55 | 11 | 310 | 96 | 310 | Activity [19]: < 20%; inhibition in vivo at 37.5 mg/kg [20]: 48%
4 | COc1ccc2c(c1)[C@]1(C[C@H]1c1ccc3c(-c4ccc(N5CCN(C)CC5)cc4)n[nH]c3c1)C(=O)N2 | 0.001 | 4 | 0.00094 | 0.015 | 1.4 | 0.045 | 0.0069 | 9 | > 1 | 710 | 19 | 35 | 3 | 33 | 1830 | 68.3 | 22 | 260 | 78 | 270 | Activity [19]: < 20%; inhibition in vivo at 37.5 mg/kg [20]: 96%; IC50 [15]: 9.4 µM
5 | COc1ccc2c(c1)[C@]1(C[C@H]1c1ccc3c(-c4ccc(N5CCN(CCO)CC5)cc4)n[nH]c3c1)C(=O)N2 | 1.7 | 4 | 0.0012 | 0.068 | 3 | 0.077 | 0.007 | 28 | > 1 | 250 | > 60 | 41 | 11 | 28 | 270 | 76.7 | 11 | 130 | 84 | 220 | –
6 | COc1ccc2c(c1)[C@]1(C[C@H]1c1ccc3c(-c4ccc(N5CCN(C)CC5)nc4)n[nH]c3c1)C(=O)N2 | 0.1 | 3.3 | 0.00069 | – | 3.3 | 0.097 | 0.01 | 8 | > 1 | 71 | 20 | 34 | 6 | 30 | 140 | 63.3 | 10 | 140 | 96 | 270 | IC50 [15]: 14 µM
